Consider two molecules from patent publication US4529602A, “Method for treatment or prophylaxis of gastro-intestinal disease” (priority 1981, dated 1985).

Structures are written as SMILES. Where a name gives a salt, the structure may show the parent alone. Where only a bound is given, the exact number is not on record here.

For one data set, the system named is Shay rat ulcers. In words: Effect on Shay rat ulcers (pylorus-ligated). To be noted: 17 h. It counts as in vivo, Male SD-strain rats. Here is the method:
Male SD-strain rats (6 to 7 weeks old) were starved for 48 hours and then the pylori were ligated. Immediately after ligation, a solution or suspension of a test compound in distilled water was administered orally into the stomachs in an amount of 0.2 ml per 100 g of body weight (Dose: 200 or 300 mg/kg). Seventeen hours after the administration of the test compound, the degree of ulceration in forestomach was examined according to the method of Takagi et al (Chem. Pharm. Bull., 11(10), pp. 1282-1290 (1963)) with a modified scoring system. Depending on the diameter of each lesions, the ulcers were classified into the following 4 grades. Ulcer index was calculated by the sum of the number of ulcers in each degree multiplied by respective ulcer score. Further, based on the ulcer index determined above, the preventive effect of the test compound on Shay rat ulcer was calculated by the following formula: [formula] (Results)

Data set [1] concerns urinary electrolytes. In words: Effect on urine volume and urinary electrolytes (Experiment 7). The data set is classed as in vivo, Male SD-strain rats. To be noted: 50 mg/kg oral. As to the method:
Male SD-strain rats (6 to 7 weeks old) were starved overnight, and a physiological saline solution (3 ml/100 g of body weight) was orally administered to the rats. One hour later, a solution or suspension of a test compound in a 0.25% CMC-physiological saline solution was administered orally to the rats in an amount of 3 ml per 100 g of body weight (Dose: 50 and 500 mg/kg). Immediately after administration of the test compound, the rats were placed into metabolic cages (2 rats per cage) and deprived of water and food for 5 hours. The urine samples which were excreted during a 5 hour period were collected. Sodium and potassium in the urine were estimated by a flame photometer (Hitachi Model-205).

The test system of data set [2] is urinary electrolytes. Put plainly: Effect on urinary electrolytes (Experiment 8). It counts as in vivo, Male SD-strain rats. The conditions noted are these: for Urine volume: 4 h, control 5.7 ± 0.6; for Na/K ratio: 4 h urine, control 6.1 ± 0.3. As to the method: Male SD-strain rats (6 to 7 weeks old, one group: 5-8 rats) were starved overnight, and a physiological saline solution (3 ml/100 g of body weight) was orally administered to the rats. One hour later, a solution of a test compound in a 0.25% CMC-physiological saline solution was administered orally to the rats in an amount of 3 ml per 100 g of body weight (Dose: 50, 500 or 1,000 mg/kg). Immediately after administration of the test compound, the rats were placed into metabolic cages (one rat per cage) and deprived of water and food for 4 hours. The urine samples which were excreted during a 4 hour period were collected. Sodium and potassium in the urine were estimated by a flame photometer (Hitachi Model-205).

The test system of data set [3] is experimentally-induced gastric ulceration. To be noted: in words, known; cited from earlier work.
The test system of a further data set is human gastric ulcer. The conditions noted are these: in words, numerous clinical trials; cited from earlier work.
Data set [4] concerns mineralo-corticoid- or aldosterone-like effect. The conditions noted are these: in vivo; cited from earlier work.
A further data set relates to pepsin secretion. Put plainly: Preventive effect on pepsin secretion in pylorus-ligated rats. It counts as in vivo, Male SD-strain rats. The conditions noted are these: 100 mg/kg oral, 5 h after administration, hydrate. Here is the method: (§1) Preventive effect on acid and pepsin secretions
(§2) Male SD-strain rats (6 to 7 weeks old) were starved for 48 hours, and then the pylori were ligated. Immediately after ligation, a solution or suspension of a test compound in distilled water was administered orally into the stomachs in an amount of 0.2 ml per 100 g of body weight (Dose: 100 mg/kg). Five hours after said administration of the test compound, the rats were sacrificed and the stomachs were removed. The gastric contents were centrifuged at 2,500 rpm for 10 minutes and the gastric juice was collected as the supernatant. The concentration of pepsin in the gastric juice was determined by Anson's method (c.f., J. Gen. Physiol., 22, pp. 77-89 (1938)) using hemoglobin as the substrate, and the preventive effect of the test compound on the pepsin secretion was estimated in terms of "decrease in pepsin concentration" according to the following formula: [formula]

In a further data set the test system is gastric acid secretion. In words: Preventive effect on gastric acid secretion in pylorus-ligated rats. The data set is classed as in vivo, Male SD-strain rats. To be noted: 100 mg/kg oral, 5 h after administration, hydrate. As to the method:
as §1, §2
On the other hand, the concentration of free acid in the gastric juice was determined by titrating said gastric juice to pH 7.0 with 0.1N NaOH, and the preventive effect of the test compound on the gastric acid secretion was estimated in terms of "the decrease in acidity of gastric juice" according to the following formula: [formula] (Results)

A further data set concerns stress-induced ulcers. Put plainly: Effect on stress-induced ulcers. The data set is classed as in vivo, Male ddY-strain mice. To be noted: 100 mg/kg oral, 16 h water immersion. As to the method:
Male ddY-strain mice (4 weeks old) weighing about 20 g were starved for about 7 hours. A solution of a test compound in distilled water was administered orally to the mice in an amount of 0.1 ml per 10 g of body weight (Dose: 100 mg/kg). Immediately after administration of the test compound, the mice were placed in a stress cage and immersed to the level of the cervix in a water bath (24±0.5° C.) for 16 hours. Then, the stomach was removed and slightly inflated by injecting 1.2 ml of a 1% formalin solution to fix the inner layers of the gastric walls. The stomach was then incised along the greater carvature, and the number of ulcerations was examined.

The next data set concerns aspirin-induced ulcers. Put plainly: Effect on aspirin-induced ulcers. The data set is classed as in vivo, Male Donryu-strain rats. To be noted: p.o. 2 m mol./kg (847 mg/kg); aspirin 200 mg/kg. As to the method: Male Donryu-strain rats (8 to 9 weeks old) were starved overnight, and a solution or suspension of a test compound in distilled water was administered orally into the stomachs in an amount of one ml per 100 g of body weight. Half an hour later, a suspension of aspirin in 0.25% CMC solution was administered orally to the rats in an amount of 0.5 ml per 100 g of body weight (Dose: 200 mg/kg). Four hours after the administration of aspirin, the rats were sacrificed and the stomachs were removed and inflated by injecting 10 ml of 1% formalin solution to fix the inner layers of the gastric walls. The stomach was then incised along the greater curvature and the lengths of the lesions were measured and summated to give ulcer index (in mm) for each animal. The preventive effect of the test compound on aspirin-induced ulcers were calculated by the following formula: [formula] (Results)

The subject of the next data set is gastric mucus secretion. In words: Effect on gastric mucus secretion (alcian blue binding). The conditions noted are these: 100 mg/kg oral, 1 h, hydrate. The data set is classed as in vivo, Male Sprague-Dawley rats. Here is the method: Stimulating effect of a test compound on gastric mucus secretion was examined by the method of Corne et al. (J. Physiol., 242, pp. 116-117(1974); J. Pharm. Pharmacol., 33, pp. 348-352(1981)). Male Sprague-Dawley rats (6-7 weeks old; one group: 6 rats) were fasted for 20 hours before the experiments. Water was given ad libitum and coprophagy was prevented by using cages with wide-mesh floors. A test compound dissolved or suspended in distilled water was administered orally to the rats at a dose of 100 mg/kg. One hour after the administration of the test compound, the stomachs were dissected, opened along the greater curvature, rinsed in ice-cold 0.25M sucrose, and the rumen was discarded. Then, the stomachs were incubated in 10 ml of a 0.15M sucrose-0.05M sodium acetate solution (pH 5.8) containing alcian blue (1 mg/ml), at room temperature for 1.5 hours. Finally, the stomachs were placed in 15 ml of a 0.5M magnesium chloride solution for 2 hours with occasional shaking and then removed, and the magnesium chloride solution was shaken briefly with 10 ml of diethyl ether. The optical density of the aqueous layer was read at 605 nm, and the degree of alcian blue binding was expressed as μg alcian blue/g of tissue. The stimulating effect of the test compound on gastric mucus secretion was estimated in terms of "the increase in alcian blue binding" which was calculated by the following formula: [formula] (Results)

In a further data set the test system is gastric mucous membrane. Put plainly: Protective effect on gastric mucous membrane (excised stomach in artificial gastric juice). The arrangement: species or system Male Sprague-Dawley rats. To be noted: 37° C., 60 min, hydrate; for Amount of tyrosine: control 2.42 ± 0.15. Here is the method:
Protective effect of a test compound on gastric mucous membrane was examined by the method of Diago et al. (Yakugaku Zasshi, 101, 452-457(1981)). Male Sprague-Dawley rats (6-7 weeks old; one group: 5 rats) were fasted for 20 hours before the experiments. Water was given ad libitum and coprophagy was prevented by using cages with wide-mesh floors. The stomach was excised, opened along the greater curvature, rinsed in physiological saline solution, and the rumen was discarded. The stomach was incubated in 10 ml of an artificial gastric juice (100 mM HCl, 0.3% pepsin, 0.2% NaCl) containing a test compound, at 37° C. for 60 minutes. After the incubation, 2 ml of 7% trichloroacetic acid were added to 0.5 ml of medium, and the mixture was centrifuged. The amount of tyrosine in the supernatant was measured by using Folin-Ciocelteu reagent (J. gen. Physiol., 16, 59-63(1932)), and expressed as mg tyrosine/g tissue. The protective effect of the test compound on gastric mucous membrane was estimated in terms of "the inhibition of digestion of mucous membrane" which was calculated by the following formula: [formula] (Results)

For a further data set, the system named is rats. In words: Acute oral toxicity in rats (Experiment 10). The data set is classed as in vivo. To be noted: male SD-strain rats, 7 days, hydrate, 10080 min. Here is the method:
After male SD-strain rats (6-7 weeks old) were starved for 20 hours, a solution or suspension of a test compound in distilled water was administered orally to the rats in an amount of one ml per 100 g of body weight. After administration of the test compound, the rats were allowed free access to water and food.

Setting [5] is: 1 mg/ml in artificial gastric juice.
The mark [6] stands for this setting: 4 mg/ml in artificial gastric juice.

For `CC1(C)[C@@H](OC(=O)CCC(=O)O)CC[C@]2(C)[C@H]3C(=O)C=C4[C@@H]5C[C@@](C)(C(=O)O)CC[C@]5(C)CC[C@@]4(C)[C@]3(C)CC[C@@H]12` [Carbenoxolone disodium salt, 3-β-hydroxy-11-oxoolean-12-en-30-oic acid hydrogen succinate, reference compound], the “Preventive effect on Shay rat ulcers” value in the data set with Shay rat ulcers (300 mg/kg oral) is 40%. The Urine volume with urinary electrolytes [1] (5 h, 2 rats per cage, control 12.3) stood at 9.3 mL; in the data set on urinary electrolytes [2] (50 mg/kg p.o.) it was 5.2 ± 0.3 mL. The molecule also registered a Na/K in the data set on urinary electrolytes [1] (5 h urine, control 5.8) of 3.2. In addition, the Na/K ratio in the data set with urinary electrolytes [2] (50 mg/kg p.o., * = significantly different (p < 0.01) from control) is listed as 3.7 ± 0.3. Further, in data set [3], the “protection from experimentally-induced gastric ulceration” value is reported as “known to protect animals from experimentally-induced gastric ulceration”. The “gastric anti-ulcer effect in human gastric ulcer patients” value in the data set on human gastric ulcer is “effective gastric anti-ulcer agent”. Also, the aldosterone-like side effect result in [4] is “has an aldosterone-like side effect”.
For orientation: LD50 means the dose at which mortality reaches 50%. Read a low LD50 as a more toxic substance. Consider `CC(C)c1cc2c(cc1S(=O)(=O)O)[C@@]1(C)CCC[C@@](C)(C(=O)O)[C@@H]1CC2` [Sulfodehydroabietic acid disodium salt, 1,4a-dimethyl-1-carboxy-6-sulfo-7-isopropyl-1,2,3,4,4a,9,10,10a-octahydro-phenanthrene disodium salt 81/2 hydrate], for which, in the data set on pepsin secretion, the “Decrease (%) in pepsin concentration” value came to 92%. In the data set with gastric acid secretion, the “Decrease (%) in acidity of gastric juice” value was determined as 54%. In addition, the “Preventive effect on Shay rat ulcers” value in the data set with Shay rat ulcers (200 mg/kg oral, hydrate) was found to be 93%. Besides, the “decrease in the number of stress-induced ulcers” value in the data set on stress-induced ulcers is given as 22%. For the same molecule, the “Preventive effect on aspirin-induced ulcers” value with aspirin-induced ulcers is 82%. The molecule also gave an Alcian blue binding in the data set on gastric mucus secretion (control (water) 198.5 ± 6.4) of 247.7 ± 18.4 μg/g tissue. Moreover, the “Increase (%) in alcian blue binding” value in the data set with gastric mucus secretion turned out to be 25%. For the same molecule, in the data set on gastric mucous membrane (setting [5]), the Amount of tyrosine was 1.64 ± 0.12 mg/g tissue and the “Inhibition (%) of digestion of mucous membrane” value is given as 32%. In addition, in the data set with gastric mucous membrane (setting [6]), the Amount of tyrosine was found to be 0.82 ± 0.07 mg/g tissue and the “Inhibition (%) of digestion of mucous membrane” value is recorded as 66%. Moreover, in the data set with urinary electrolytes [2] (500 mg/kg p.o.), the Urine volume worked out at 4.8 ± 0.4 mL and the Na/K ratio was 7.4 ± 1.0. For the same molecule, in the data set on urinary electrolytes [2] (1000 mg/kg p.o.), the Urine volume came to 4.3 ± 0.3 mL and the Na/K ratio is recorded as 5.9 ± 0.4. Moreover, the LD50 in the data set on rats is recorded as > 2000 mg/kg.
